Assay results as given in paper PMC5343495 (Scientific Reports, 2017).
“Also recorded” adds a separate entry of the source. Where two headings read alike, the source gives them in different places.

What was measured:
washed platelets = test: Inhibition of thrombin-induced platelet aggregation (turbidimetric method); assay type: cell-based, rabbits; settings: BBR 0.83, 2.50 and 7.50 μM, 5 min at 37 °C, 0.5 U/ml thrombin
Protocol: PRP was obtained by centrifugation of collected blood at 190 g for 10 min. The platelets were isolated from PRP by centrifugation for 10 min at 650 g, resuspended and washed twice in Ca^2+-free Tyrode’s buffer (138 mM NaCl, 2.68 mM KCI, 11.9 mM NaHCO3, 0.36 mM NaH2PO4, 0.49 mM MgSO4, 5.5 mM glucose, pH7.5)[42]. Washed platelets were then resuspended in Tyrode’s buffer including 1.8 mM CaCl2 at a density of 2 × 10^7 platelets/ml.
Aggregation was initiated by the addition of 10 μL of thrombin (final concentrations of 0.5 U/ml). Aggregation was recorded at 37 °C for 5 min using a four-channel platelet aggregation analyser (LBY-NJ4, Beijing Precil Instrument Co., Ltd., China). Platelet aggregation inhibitory percentage was calculated using the following equation: Inhibitory percentage (%) = (1 − At/A0) × 100%. At is the platelet aggregation percentage of the test sample, and A0 is the platelet aggregation percentage of the control sample.

[1] = target: T1, Thrombin from human plasma (Homo sapiens, UniProt P00734); test: SPR competitive binding assay of BBR with argatroban (ABA method, Biacore S200); settings: 300 μM BBR; 30, 60 or 120 μM argatroban
T1 construct: Thrombin, a multifunctional serine protease generated by prothrombin cleavage; purchased Sigma-Aldrich Chemical Co. (St. Louis, MO, USA) T6884; host or cells: human plasma
Protocol: The response units were measured before the end of injection.

thrombin [2] = target: T2, thrombin (Homo sapiens, UniProt P00734); test: Thrombin inhibition assay (SensoLyte 520 FRET substrate kit); assay type: biochemical; settings: read-out: inhibition relative to the positive control
T2 construct: Thrombin, a multifunctional serine protease generated by prothrombin cleavage; purchased AnaSpec, Inc., San Jose, CA
Protocol: To evaluate the thrombin-inhibitory activity of the hits, a fluorescence assay utilizing a SensoLyte 520 Thrombin Activity Assay Kit (AnaSpec, Inc., San Jose, CA) was performed following the manufacturer’s instructions. This kit contained a novel 5-FAM/QXL 520 (fluorophore/quencher pair) FRET modified substrate (approximately 6 amino acids) that can be cleaved by thrombin at the Arg-Gly (R-G) site. The FRET substrate can be cleaved into two separate fragments, resulting in the release of 5-FAM fluorescence, which can be monitored at an excitation/emission = 490 nm/520 nm[37]. […]
Ten microlitres of compound solution (300 μM in assay buffer) and 40 μL thrombin solution (0.33 μg/ml in assay buffer) were sequentially added to each well of a black, flat- bottom, non-binding 96-well plate (Corning #3650, Corning, NY). […] After incubation, the fluorescence (excitation 490 nm, emission 520 nm) of each mixture was detected with a 2104 EnVision Multilabel Reader (PerkinElmer).
For enzymatic reaction, the thrombin solution treated with vehicle buffer alone was used as negative control. […] All fluorescence readings are taken into account in relative fluorescence units (RFU). The experimental data were analyzed by GraphPad Prism software (version 5, Graphpad Software Incorporation, USA).

HEK293 cells = test: Luciferase-coupled ATP quantitative assay (CellTiter-Glo cytotoxicity); assay type: cell-based; settings: incubation 24, 48 or 72 hours
Protocol: HEK293 cells were seeded at 5.0 × 10^3 per well into 96-well clear-bottom black plates and incubated in 5% CO2 at 37 °C overnight. […] Luminescence was determined with an Envision 2100 multilabel reader to detect viability following incubation with CellTiter-Glo reagent for 15 min.

thrombin [3] = target: T2, thrombin; set-up: method as in PMID 12646027, PMID 19674897, PMID 18674905, PMID 18289852, PMID 18052026; settings: training set for pharmacophore generation; cited from earlier work
[4] = target: T1, Thrombin from human plasma; test: SPR binding affinity measurement (Biacore T200, thrombin-immobilized CM5 chip)
Protocol: SPR binding studies were performed using a Biacore T200 biosensor system (GE Healthcare, Uppsala, Sweden).
Thrombin was diluted in 10 mM sodium acetate buffer at pH 5.0 and immobilized on a CM5 chip using an amine coupling kit. […] A total of 8419 RU of immobilized proteins was obtained. Sensor preparation and interaction analyses were performed at 25 °C in a PBS-P [10 mM phosphate buffer, 137 mM NaCl, 2.7 mM KCl, 0.05% P20 (pH 7.4)] running buffer containing 5% DMSO.
Solvent-correction procedures were included to compensate for any DMSO-related bulk refractive index variations. Reference flow cell without immobilized thrombin served as a non-specific binding control. Biacore traces were baseline subtracted and the signal was presented in sensorgrams and measured in RU. […] Equilibrium constants (KD) were calculated using the ‘affinity’ model in Biacore T200 evaluation software version 2.0.

[5] = Table 2, SPR, immobilized thrombin, read-out: KD

Structure (SMILES): COc1ccc2cc3[n+](cc2c1OC)CCc1cc2c(cc1-3)OCO2 [BBR, Berberine]
- effect on thrombin-induced platelet aggregation (washed platelets): had the ability to inhibit thrombin-induced platelet aggregation; also recorded: significantly prevented platelet aggregation
- competitive binding with argatroban to thrombin [1]: could bind to the same argartroban/thrombin interaction site
- inhibition at 30 µM (thrombin [2]): ≥ 50%
- cytotoxicity (HEK293 cells): no significant cytotoxicity; also recorded: without cytotoxicity

Structure (SMILES): NC1CCC(CNC(=O)C2CCCN2C(=O)C(N)C(c2ccccc2)c2ccccc2)CC1 (centres unmarked) [CHEMBL269744]
- IC50 (thrombin [3]): 0.0001 µM

Structure (SMILES): O=C(O)c1cc(O)c(O)c(O)c1 [Gallic acid]
- Kd [4]: > 200 µM

Structure (SMILES): O=C1c2ccccc2C(=O)c2c(O)c(O)cc(O)c21 [Hydroxyalizarin, reference compound]
- Kd [4, 5]: > 200 µM

Structure (SMILES): CC1(C)CCC[C@](C)([C@H]2CC[C@]3(C)[C@@H]2[C@H](O)C[C@@H]2[C@@]4(C)CC[C@H](O)C(C)(C)[C@@H]4[C@@H](O)C[C@]23C)O1 [Panaxatriol]
- Kd [4, 5]: > 200 µM
